pIC50: −log10 of the molar value. Read-outs that look alike come from different tables or passages of the source.
What was measured:
[1] = tested on: E. coli expressing the Class A ESBL SHV-5; experiment: microbe, parasite or virus in culture; type: cell-based; conditions: for MIC of example compound, E. coli SHV-5 + 8 μg/mL CAZ: in the presence of fixed 8 μg/mL Ceftazidime
Description: (§1) To determine the ability of test compounds to potentiate the inhibition of the growth of bacterial strains producing beta-lactamase enzymes, classic cell based screening assays were employed. Four bacteria strains producing beta-lactamase enzymes were used: K. pneumoniae expressing the Class A Extended Spectrum Beta-Lactamase (ESBL) CTX-M-15, E. coli expressing the Class A ESBL SHV-5, E. cloacae expressing the Class C P99+, and K. pneumoniae expressing the Class A carbapenemase KPC-2. In order to evaluate the ability of test compounds to inhibit beta-lactamase activity, Applicants used a modification of the broth microdilution assay. The assay was conducted in Cation Adjusted Mueller Hinton Broth (CAMHB, BD # 212322, BD Diagnostic Systems, Sparks, Md.). Bacteria strains were grown for 3-5 hours in CAMBH broth. All four strains were grown in presence of 50 μg/mL ampicillin to ensure resistance is maintained. In the meantime, test compounds were diluted in DMSO to a 0.1 mg/mL stock. The compounds were added to a microtiter plate and were diluted in 2-fold serial dilutions in CAMHB in a final concentration range of 8 μg/mL to 0.015 μg/ml. An overlay of CAMHB containing a cephalosporin was added to the compounds at a final static concentration of 8 μg/ml. […] Each of these compound plates are made in quadruplicate, one for each bacteria strain. In addition to the titration of test compounds the MICs of a panel of cephalosporins is also tested to ensure the strains are behaving consistently from test to test. Once the test compound and cephalosporin are added the plates can be inoculated. Inocula are conducted according to CLSI broth microdilution method. After inoculation the plates are incubated for 16-20 hours at 37° C. then the Minimal Inhibitory Concentration (MIC) of the test compound is determined visually.

[2] = tested on: E. cloacae expressing the Class C P99+ AmpC; experiment: microbe, parasite or virus in culture; type: cell-based; conditions: for MIC of example compound, E. cloacae P99 AmpC + 8 μg/mL CAZ: in the presence of fixed 8 μg/mL Ceftazidime
Description: as §1

[3] = tested on: K. pneumoniae expressing the Class A ESBL CTX-M-15; experiment: microbe, parasite or virus in culture; type: cell-based; conditions: for MIC of example compound, K. pneumoniae CTX-M-15 + 8 μg/mL CAZ: in the presence of fixed 8 μg/mL Ceftazidime
Class C P99 AmpC = molecular target: T1, Class C P99 AmpC (Enterobacter cloacae, UniProt P05364); type: biochemical; conditions: purified enzyme; nitrocefin 100 μM, PBS pH 7.0; read-out: P99 AmpC IC50 Range
T1 construct: made in house; host or cells: E. coli BL21(DE3)
T1 sequence (P05364 21-381): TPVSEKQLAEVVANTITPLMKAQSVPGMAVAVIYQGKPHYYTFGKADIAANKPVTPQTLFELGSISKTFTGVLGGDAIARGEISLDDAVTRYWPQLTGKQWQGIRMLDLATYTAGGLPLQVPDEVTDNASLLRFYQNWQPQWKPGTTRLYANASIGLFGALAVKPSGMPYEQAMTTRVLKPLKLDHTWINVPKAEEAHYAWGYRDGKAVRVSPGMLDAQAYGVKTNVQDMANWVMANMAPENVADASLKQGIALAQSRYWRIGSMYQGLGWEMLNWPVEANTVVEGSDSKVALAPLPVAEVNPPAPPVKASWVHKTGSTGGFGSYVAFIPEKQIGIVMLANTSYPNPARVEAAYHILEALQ
In short: (§2)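 Native untagged enzymes were expressed in E. coli BL21(DE3) and purified by cation exchange and gel filtration. Compound series (100–0.005 μM in PBS pH 7.0, before addition of an equal enzyme volume) were preincubated with enzyme 10 min at 37°C. Nitrocefin (100 μM final) hydrolysis was read kinetically at 486 nm for 10 min, and IC50 was taken as 50% reduction of initial rate versus no-inhibitor wells.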

Class A ESBL CTXM-15 = molecular target: T2, Class A ESBL CTXM-15 (Escherichia coli, UniProt Q9EXV5); experiment: β-lactamase enzyme inhibition (nitrocefin hydrolysis), CTXM-15; type: biochemical; conditions: purified enzyme; nitrocefin 100 μM, PBS pH 7.0; read-out: CTXM-15 IC50 Range
T2 construct: made in house; host or cells: E. coli BL21(DE3)
T2 sequence (Q9EXV5 entry or part of it): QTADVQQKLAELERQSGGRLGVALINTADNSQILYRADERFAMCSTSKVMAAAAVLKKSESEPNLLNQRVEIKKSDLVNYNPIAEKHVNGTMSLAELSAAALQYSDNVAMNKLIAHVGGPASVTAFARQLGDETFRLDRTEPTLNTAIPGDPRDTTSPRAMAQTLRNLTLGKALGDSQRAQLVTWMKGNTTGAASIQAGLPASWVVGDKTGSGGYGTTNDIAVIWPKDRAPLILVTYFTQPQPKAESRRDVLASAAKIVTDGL
In short: as §2

Class A ESBL SHV-5 = molecular target: T3, Class A ESBL SHV-5 (Klebsiella pneumoniae, UniProt P0A3M1); type: biochemical, E. coli; conditions: nitrocefin 100 μM, PBS pH 7.0, read-out: SHV-5 IC50 Range
T3 construct: made in house; host or cells: E. coli BL21(DE3) for purified enzyme; E. coli cells containing SHV-5 for extracts
T3 sequence (P0A3M1 22-286): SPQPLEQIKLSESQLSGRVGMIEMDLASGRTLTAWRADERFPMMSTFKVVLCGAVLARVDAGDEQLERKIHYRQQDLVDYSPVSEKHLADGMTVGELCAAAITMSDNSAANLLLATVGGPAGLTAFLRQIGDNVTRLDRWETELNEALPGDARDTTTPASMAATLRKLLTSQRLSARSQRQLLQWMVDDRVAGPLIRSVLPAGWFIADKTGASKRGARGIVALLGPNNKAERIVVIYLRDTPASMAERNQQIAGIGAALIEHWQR

[4] = tested on: K. pneumoniae expressing the Class A carbapenemase KPC-2; experiment: microbe, parasite or virus in culture; conditions: for MIC of example compound, K. pneumoniae KPC-2 + 8 μg/mL CAZ: in the presence of fixed 8 μg/mL Ceftazidime
[5] = molecular target: T4, Class A carbapenemase KPC-2 (Klebsiella pneumoniae, UniProt Q9F663); experiment: β-lactamase enzyme inhibition (nitrocefin hydrolysis), KPC-2; type: biochemical; conditions: purified enzyme; nitrocefin 100 μM, PBS pH 7.0; read-out: KPC-2 IC50 Range
T4 construct: made in house; host or cells: E. coli BL21(DE3)
T4 sequence (Q9F663 25-293 limits assumed): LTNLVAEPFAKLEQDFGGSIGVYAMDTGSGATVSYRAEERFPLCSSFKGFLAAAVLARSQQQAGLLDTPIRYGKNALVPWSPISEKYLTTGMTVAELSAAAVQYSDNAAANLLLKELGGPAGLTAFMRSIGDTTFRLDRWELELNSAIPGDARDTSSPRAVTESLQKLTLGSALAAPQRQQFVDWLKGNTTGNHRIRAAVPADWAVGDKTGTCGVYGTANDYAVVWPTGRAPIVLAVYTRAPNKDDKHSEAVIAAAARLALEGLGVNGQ
In short: as §2

[6] = cellular extracts of E. coli containing SHV-5 (Examples 2-30)
[7] = purified beta-lactamase enzyme (Examples 1 and 31-64)
[8] = Klebsiella pneumoniae, read-out: MIC alone

SMILES	MIC of example compound, E. coli SHV-5 + 8 μg/mL CAZ [1]	MIC of example compound, E. cloacae P99 AmpC + 8 μg/mL CAZ [2]	MIC of example compound, K. pneumoniae CTX-M-15 + 8 μg/mL CAZ [3]	pIC50 (Class C P99 AmpC)	pIC50 (Class A ESBL CTXM-15)	pIC50 (Class A ESBL SHV-5; [6])	MIC of example compound, K. pneumoniae KPC-2 + 8 μg/mL CAZ [4]	pIC50 [5]	pIC50 (Class A ESBL SHV-5; [7])	MIC ([1]; Escherichia coli, read-out: MIC alone)	MIC ([2]; Enterobacter cloacae, read-out: MIC alone)	MIC [3, 8]	MIC [4, 8]
O=C(Cc1ccccc1)N[C@@H](Cc1cccc(C(=O)O)c1O)B(O)O [Example 10, (1R)-1-(2-phenylacetylamino)-2-(2-hydroxy-3-carboxyphenyl)ethyl-1-boronic acid]	C (C represents an MIC of <1 μg/mL)	C (C represents an MIC of <1 μg/mL)	C (C represents an MIC of <1 μg/mL)	> 8.00	> 8.00	> 8.00	C (C represents an MIC of <1 μg/mL)						
CC(=O)NCC(=O)N[C@@H](Cc1cccc(C(=O)O)c1O)B(O)O [Example 37, (1R)-1-(2-acetamidoacetylamino)-2-(2-hydroxy-3-carboxyphenyl)ethyl-1-boronic acid]		C (C represents an MIC of <1 μg/mL)	C (C represents an MIC of <1 μg/mL)	7.00 to 8.00	7.00 to 8.00		C (C represents an MIC of <1 μg/mL)	7.00 to 8.00	7.00 to 8.00				
O=C(N[C@@H](Cc1cccc(C(=O)O)c1O)B(O)O)c1cnc2ccccc2n1 [Example 54, (1R)-1-(Quinoxaline-2-carbonyl-amino)-2-(2-hydroxy-3-carboxyphenyl)ethyl-1-boronic acid]	A (A represents an MIC >8 μg/mL)	A (A represents an MIC >8 μg/mL)	A (A represents an MIC >8 μg/mL)	> 8.00	> 8.00			> 8.00	7.00 to 8.00				
CC(C)(O/N=C(\C(=O)N[C@@H]1C(=O)N2C(C(=O)[O-])=C(C[n+]3ccccc3)CS[C@H]12)c1csc(N)n1)C(=O)O [Ceftazidime, reference compound]										> 1020 µg/mL	128 µg/mL	128 µg/mL	32 µg/mL
O=C(O)c1cccc(C[C@H](NC(=O)C2CC2)B(O)O)c1O [Example 20, (1R)-1-Cyclopropanecarbonyl-amino-1-(3-carboxy-2-hydroxy)benzyl-methylboronic acid]		C (C represents an MIC of <1 μg/mL)	C (C represents an MIC of <1 μg/mL)	> 8.00	> 8.00	6.00 to 7.00	C (C represents an MIC of <1 μg/mL)	7.00 to 8.00					
O=C(N[C@@H](Cc1cccc(C(=O)O)c1O)B(O)O)c1cn2ccsc2n1 [Example 56, (1R)-1-(Imidazo[2,1-b]thiazole-6-carbonyl-amino)-2-(2-hydroxy-3-carboxyphenyl)ethyl-1-boronic acid]	A (A represents an MIC >8 μg/mL)	A (A represents an MIC >8 μg/mL)	A (A represents an MIC >8 μg/mL)	6.00 to 7.00	7.00 to 8.00			6.00 to 7.00	7.00 to 8.00				
CC(=O)N1CCC(C(=O)N[C@@H](Cc2cccc(C(=O)O)c2O)B(O)O)CC1 [Example 49, (1R)-1-(1-Acetyl-piperidine-4-carbonyl)-amino-1-(3-carboxy-2-hydroxy)benzyl-methylboronic acid]		C (C represents an MIC of <1 μg/mL)	C (C represents an MIC of <1 μg/mL)	7.00 to 8.00	7.00 to 8.00		C (C represents an MIC of <1 μg/mL)	> 8.00	6.00 to 7.00				
CCC(=O)N[C@@H](Cc1cccc(C(=O)O)c1O)B(O)O [Example 16, (1R)-1-(propionylamino)-2-(2-hydroxy-3-carboxyphenyl)ethyl-1-boronic acid]		C (C represents an MIC of <1 μg/mL)	C (C represents an MIC of <1 μg/mL)	7.00 to 8.00	7.00 to 8.00	6.00 to 7.00	C (C represents an MIC of <1 μg/mL)	7.00 to 8.00					
Cl.NCCOc1cccc(CC(=O)N[C@@H](Cc2cccc(C(=O)O)c2O)B(O)O)c1 [Example 4, (1R)-1-[3-(2-amino)-ethoxy-phenyl]acetylamino-1-(3-carboxy-2-hydroxy)benzyl-methylboronic acid hydrochloride]	C (C represents an MIC of <1 μg/mL)	C (C represents an MIC of <1 μg/mL)	C (C represents an MIC of <1 μg/mL)	> 8.00	> 8.00	> 8.00	C (C represents an MIC of <1 μg/mL)						
O=C(N[C@@H](Cc1cccc(C(=O)O)c1O)B(O)O)c1ccccc1 [Example 13, (1R)-1-Benzoylamino-1-(3-carboxy-2-hydroxy)benzyl-methylboronic acid]		C (C represents an MIC of <1 μg/mL)	C (C represents an MIC of <1 μg/mL)	> 8.00	7.00 to 8.00	7.00 to 8.00	C (C represents an MIC of <1 μg/mL)	> 8.00					
O=C(N[C@@H](Cc1cccc(C(=O)O)c1O)B(O)O)c1ccno1 [Example 46, (1R)-1-(isoxazole-5-carbonyl-amino)-2-(2-hydroxy-3-carboxyphenyl)ethyl-1-boronic acid]		C (C represents an MIC of <1 μg/mL)	C (C represents an MIC of <1 μg/mL)	> 8.00	> 8.00		C (C represents an MIC of <1 μg/mL)	7.00 to 8.00	> 8.00				
O=C(N[C@@H](Cc1cccc(C(=O)O)c1O)B(O)O)c1ccc(F)cc1 [Example 26, (1R)-1-(4-Fluorobenzoylamino)-(3-carboxy-2-hydroxy)benzyl-methylboronic acid]		C (C represents an MIC of <1 μg/mL)	C (C represents an MIC of <1 μg/mL)	> 8.00	> 8.00	7.00 to 8.00	C (C represents an MIC of <1 μg/mL)	> 8.00					

— US20100120715A1, “BETA-LACTAMASE INHIBITORS” (priority 2007, published 2010)
